Experimental data: PMC10279640 (Nature Communications, 2023)
Square brackets hold non-standard residues; d marks the D form. Peptide text beside a SMILES is read from it. sY = N[C@@H](Cc1ccc(OS(=O)(=O)O)cc1)C(=O)O

Tests used:
PvDBP-RII = PvDBP-RII (Plasmodium vivax, UniProt P22290, S353A/T257A/T422A); assay: biochemical; format: binding
[1] = tested on: P. knowlesi PvDBP^OR/PkDBPβγ^KO; settings: PvDBP-expressing P. knowlesi, at the concentrations tested
[2] = tested on: P. knowlesi wild-type A1-H.1

Row | Compound | Kd (PvDBP-RII) [nM] | growth inhibition (in words) [1] | growth inhibition (in words) [2]
1 | CC(=O)N[C@@H](CCC(N)=O)C(=O)N[C@@H](CC(C)C)C(=O)N[C@@H](CC(=O)O)C(=O)N[C@@H](Cc1ccccc1)C(=O)N[C@@H](CCC(=O)O)C(=O)N[C@@H](CC(=O)O)C(=O)N[C@H](C(=O)N[C@@H](Cc1c[nH]c2ccccc12)C(=O)N[C@@H](CC(N)=O)C(=O)N[C@@H](CO)C(=O)N[C@@H](CO)C(=O)N[C@@H](Cc1ccc(OS(=O)(=O)O)cc1)C(=O)NCC(=O)N[C@H](C(=O)N[C@@H](CC(N)=O)C(=O)N[C@@H](CC(=O)O)C(=O)N[C@@H](CO)C(=O)N[C@@H](Cc1ccccc1)C(=O)N1CCC[C@H]1C(=O)N[C@@H](CC(=O)O)C(=O)NCC(=O)N[C@@H](CC(=O)O)C(=O)N[C@@H](Cc1ccc(O)cc1)C(=O)N[C@@H](CC(=O)O)C(=O)N[C@@H](C)C(=O)N[C@@H](CC(N)=O)C(=O)N[C@@H](CC(C)C)C(=O)N[C@@H](CCC(=O)O)C(=O)N[C@@H](CC(C)C)C(N)=O)C(C)C)C(C)C [Y30-S] (Ac-QLDFEDVWNSS[sY]GVNDSFPDGDYDANLEL-NH2) | 552 |  | 
2 | Ac-QLDFEDVWNSSYGVNDSFPDGDYDANLEL-NH2 [non-sulfated] |  | no growth inhibition observed | no inhibition observed
